Data set [1] in a line: ID administration of 200 uL dye with 34G, 1 mm needle/catheter, transport to inguinal lymph node. The format is in vivo, Yorkshire swine. Conditions: swine, manual ID above the right hoof, 200 uls. On the procedure: MATERIALS AND METHODS. The following experiments were conducted under an approved IACUC protocol. Yorkshire Swine (Charles River Laboratories, Raleigh, N.C.), approximately 20-25 kg, were anesthetized (Rompun 4 mg/kg, Xylazine 2 mg/kg, and Ketamine 2 mg/kg and maintained on 2% isoflurane) and injected intradermally with 1% Evans Blue (EB) dye solution at various volumes and needle penetration depths using a standard syringe and a 34 gauge needle. Injection volume and rate was controlled manually or with a Harvard Apparatus PhD 2000 programmable pump.
The skin at the injection site, including the injected material and surrounding tissue, was immediately excised after the injection. The tissue was flash frozen on dry ice/2-methylbutane and then stored at −80° C. until sectioning. The frozen tissue was cut longitudinally through the needle insertion point and immediately examined microscopically and photographed. Microscopic examinations were conducted using a Nikon SMZ-U dissecting scope with a Nikon FX-35PX 35 mm camera mount. Alternatively, after injection, the swine was euthanized and the tissue resected and photographed.
One anesthetized Yorkshire swine was manually injected intradermally above the right hoof with 200 uls of EB through a 34G, 1 mm needle/catheter.

Data set [2] can be described thus: Dye staining and tracing in vivo after intradermal injection. Details: species or system Balb/c mice. As to conditions: mouse, ID, 34 gauge needle, 1% solution, one hour post injection. On the procedure: MATERIALS AND METHODS. In Vivo cell staining and all the following experiments were conducted under an approved IACUC protocol. Balb/c mice (Charles River Laboratories, Raleigh, N.C.), 6-8 weeks old, were anesthetized (IsoFlurane, Abbott Laboratories, Chicago, Ill.) and injected intradermally with 1% Evans Blue dye solution using a standard syringe with 34 gauge needle. The mice were dissected one hour post injection and the location of the dye observed. The mouse, as the human, has several main groups of easily identified draining lymph nodes.

A short description of data set [3]: Dye staining and tracing in vivo: comparison of SC and ID delivery. Details: species or system Yorkshire swine. Conditions: swine; for location of dye on dissection: 10 minutes post injection. On the procedure: MATERIALS AND METHODS. In vivo cell staining and all the following experiments were conducted under an approved IACUC protocol. […] Visual observation made during ID injection noted immediate transport of the dye from the site of injection moving toward the regional draining lymph node, the inguinal node. This transport was visible through the skin and was extremely rapid, traversing tissues at velocities of up to 10 cm per second. […] The swine was euthanized and dissected 10 minutes post injection and the location of the dye observed.

The conditions of data set [4]: Yorkshire, swine, in vivo.
Description: Yorkshire swine (Charles River Laboratories, Raleigh, N.C.), 20-25 kg, were anesthetized (telazol/xylazine/ketamine mix (35, 17.5, 17.5 mg/kg respectively, followed by continued isoflurane inhalation) and injected intradermally (90° angle) using a 34G, 1 mm needle/catheter and a standard syringe. IV injections were performed using a 27G, half-inch needle and delivered through a venous catheter. All recovered swine were intubated and hydrated throughout the procedure.
Dye Injections: Yorkshire swine were injected ID as described above, with 200 uls of 250 ug/ml indocyanine green (ICG) in sterile water (Fluka Chemical Corp., Milwaukee, Wis.). Injections sites included the right hind leg, and at the first and second teat of the left mammary chain. Additional injections of 200 μls and 75 μls were performed at 80 ug/ml indocyanine green in order to determine lymphatic flow rates. […]
Image Acquisition: Near infrared images were obtained using a tungsten lamp (Dolan-Jenner, Lawrence, Mass.) fitted with a 750 nm excitation filter (Omega Optical, Brattleboro, Vt.), a CCD camera (Kowa Co., Supercircuits CCTV camera model b/w Hi-Res ExVision) fitted with a 790 nm long pass emission filter (Omega Optical) and a Canon ZR-20 mini-DV camcorder. […] Speed of infusion through the lymphatic vessels determined from film footage.

For the compound `Cc1cc(-c2ccc(/N=N/c3ccc4c(S(=O)(=O)O)cc(S(=O)(=O)O)c(N)c4c3O)c(C)c2)ccc1/N=N/c1ccc2c(S(=O)(=O)O)cc(S(=O)(=O)O)c(N)c2c1O` [Evans Blue], the “time for dye to travel from site of injection to draining inguinal lymph node” value in data set [1] is on record as “Within seconds”. Moreover, the “rate of travel of dye to draining inguinal lymph node” value in data set [1] (34G 1 mm needle/catheter) is ~20 cm/s. Further, the “staining of superficial inguinal lymph nodes with the dye” value in data set [2] is “highly stained”. Besides, the “location of dye on dissection” value was “moved rapidly through the lymphatic vasculature to the inguinal node” in data set [3] (ID injected); “remained at the site of injection and was not transported to the inguinal node” in data set [3] (subcutaneous injected). For the same compound, the “velocity of dye transport from injection site toward inguinal node” value in data set [3] (ID, 34-gauge needle 1 mm, 1% solution, visual observation through skin) is recorded as “up to 10 cm per second”. The “transport of dye, visual observation” value in data set [3] (subcutaneous, 25 gauge needle, approximate depth 7 mm) is listed as “no apparent transport of the dye”.

Take `CC1(C)C(/C=C/C=C/C=C/C=C2\N(CCCCS(=O)(=O)O)c3ccc4ccccc4c3C2(C)C)=[N+](CCCCS(=O)(=O)[O-])c2ccc3ccccc3c21` [ICG, indocyanine green]: in data set [4], the “dye travel speed calculated for one injection” value was 7 cm/s.

The record behind these values is patent US20050163711A1, “Intra-dermal delivery of biologically active agents” (Becton, Dickinson and Company, Inc., priority 2003, published 2005).
